# Like-named read-outs stand apart in the source and are kept apart here.
# How the values were obtained:
# [1] = molecular target: T1, RORγt (Homo sapiens, UniProt P51449); assay: RORγt binding test using fluorescent-labeled cholesterol (TR-FRET); conditions: read-out: Binding inhibitory rate of fluorescent-labeled cholesterol to RORγt at test compound 1 μM (%)
# T1 sequence (P51449 1-497 isoform P51449-2): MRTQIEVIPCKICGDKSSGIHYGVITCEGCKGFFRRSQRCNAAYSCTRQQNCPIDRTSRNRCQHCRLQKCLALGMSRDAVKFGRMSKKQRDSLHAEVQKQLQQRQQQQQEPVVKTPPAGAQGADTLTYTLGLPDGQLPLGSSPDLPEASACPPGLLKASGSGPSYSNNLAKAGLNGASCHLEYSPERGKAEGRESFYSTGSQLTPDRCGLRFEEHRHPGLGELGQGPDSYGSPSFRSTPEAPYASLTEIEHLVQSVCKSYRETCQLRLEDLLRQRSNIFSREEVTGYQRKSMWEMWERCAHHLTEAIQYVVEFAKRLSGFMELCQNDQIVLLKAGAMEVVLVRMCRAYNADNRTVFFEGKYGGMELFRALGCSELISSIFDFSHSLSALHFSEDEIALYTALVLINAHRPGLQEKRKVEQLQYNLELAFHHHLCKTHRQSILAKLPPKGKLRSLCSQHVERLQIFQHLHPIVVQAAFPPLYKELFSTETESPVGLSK
# Procedure: RORγt Binding Test Using Fluorescent-labeled Cholesterol
# The binding activity of the test compound to RORγt was measured by a time resolved fluorescence resonance energy transfer method (TR-FRET) utilizing histidine-tagged RORγt, fluorescent-labeled cholesterol (BODIPY-cholesterol, AVIVA), and terbium-labeled anti-histidine tag antibody (Invitrogen). First, a test compound diluted with an assay buffer (20 mM Tris-HCl (pH 7.5), 100 mM NaCl, 1 mM DTT, 0.1% BSA) was added to a 384 well plate by 3 μL. Then, RORγt diluted with an assay buffer to 240 nM was added by 3 μL, after which fluorescent-labeled cholesterol diluted with the assay buffer to 12 μM was added by 3 μL, and the mixture was stood at room temperature for 20 min. Thereafter, a terbium-labeled anti-histidine tag antibody diluted with the assay buffer to 8 nM was added by 3 μL. The mixture was stood at room temperature for 20 min, and fluorescence intensity (excitation wavelength 320 nm, fluorescence wavelength 520 nm, delay time 100 microseconds) was measured by Envision (PerkinElmer).
# [2] = molecular target: T1, RORγt; assay: Cofactor recruitment test (Alpha Screen, biotinylated SRC-1 peptide); format: biochemical; conditions: read-out: Signal value inhibitory rate at test compound 1 μM (%)
# Procedure: Cofactor Recruitment Test
# Cofactor recruitment test was performed by Alpha Screen (Histidine Detection Kit, PerkinElmer) method. First, a test compound was diluted with an assay buffer (50 mM Tris-HCl (pH 7.5), 50 mM KCl, 1 mM DTT, 0.1% BSA) and added to a 384 well plate by 5 μL. […] The mixture was stood in a dark place for 1 hr, and the signal value was measured by Envision (PerkinElmer).
# [3] = molecular target: T1, RORγt; assay: Jurkat reporter test (human IL-17 ROR response element luciferase, RORγt vector); format: cell-based; conditions: read-out: Luminescence level inhibitory rate at test compound 3 μM (%)
# Procedure: The Jurkat cells used for the reporter test were cultured in a culture medium (RPMI (Invitrogen), 10% FCS (AusGeneX), 100 U/mL penicillin, 100 μg/mL streptomycin). On the day of the test, 4×10^7 cells were recovered by a centrifugal operation (1000 rpm, 5 min.) and suspended in PBS (phosphate buffered saline) (Invitrogen). Thereafter, the cells were recovered again by a centrifugal operation, and suspended in 2 mL of R buffer (NEON transfection kit, Invitrogen). […] Gene transfer was performed by Electroporation apparatus (NEON, Invitrogen) under the conditions of pulse voltage 1350 V, interval 10 milliseconds, number of times 3. The cells after gene transfer were suspended in 40 mL of a reaction medium (RPMI, 10% Lipid reduced FCS (HyClone), 10 mM HEPES (pH 7.5), 100 U/mL penicillin, 100 μg/mL streptomycin, 5 μM lovastatin), and plated in a 96 well plate by 90 μL. A test compound diluted with the reaction medium was added by 10 μL, and the cells were cultured overnight in an incubator. Bright-Glo (Promega) was added by 100 μL, and the mixture was stirred at room temperature for 10 min, and the luminescence level was measured by Envision (PerkinElmer).
# [4] = test compound 3 μM, Jurkat cells
Structure (SMILES),inhibition at 1 µM [1] [%],inhibition at 1 µM [2] [%],"inhibition at 3 µM [3, 4] [%]",inhibition at 3 µM ([3]; Jurkat) [%]
"COc1ccc2c(c1)CCN(C(=O)c1ccc(=O)[nH]c1)C2C(=O)Nc1ccc([Si](C)(C)C)cc1 (stereo not drawn) [Example 2, 6-methoxy-2-((6-oxo-1,6-dihydropyridin-3-yl)carbonyl)-N-(4-(trimethylsilyl)phenyl)-1,2,3,4-tetrahydroisoquinoline-1-carboxamide]",99.7,80.5,,98.1
"COc1ccc2c(c1)CCN(C(=O)c1cc(O)no1)C2C(=O)Nc1ccc([Si](C)(C)C)c(F)c1 (stereo not drawn) [Example 3, N-(3-fluoro-4-(trimethylsilyl)phenyl)-2-((3-hydroxy-1,2-oxazol-5-yl)carbonyl)-6-methoxy-1,2,3,4-tetrahydroisoquinoline-1-carboxamide]",101,92.7,,99.6
"COc1ccc2c(c1)CCN(C(=O)c1ccc(=O)[nH]c1)C2C(=O)Nc1ccc([Si](C)(C)C)c(F)c1 (stereo not drawn) [Example 4, N-(3-fluoro-4-(trimethylsilyl)phenyl)-6-methoxy-2-((6-oxo-1,6-dihydropyridin-3-yl)carbonyl)-1,2,3,4-tetrahydroisoquinoline-1-carboxamide]",101,81.9,,99.7
"COc1ccc2c(c1)CCN(C(=O)c1ccc(=O)[nH]c1)[C@H]2C(=O)Nc1ccc([Si](C)(C)C)c(F)c1 [Example 8, (1R)-N-(3-fluoro-4-(trimethylsilyl)phenyl)-6-methoxy-2-((6-oxo-1,6-dihydropyridin-3-yl)carbonyl)-1,2,3,4-tetrahydroisoquinoline-1-carboxamide]",102,81.2,,101
"COc1ccc2c(c1)CCN(C(=O)c1cc(O)no1)C2C(=O)Nc1ccc(C(C)(C)C)c(F)c1 (stereo not drawn) [Example 9, N-(4-tert-butyl-3-fluorophenyl)-2-((3-hydroxy-1,2-oxazol-5-yl)carbonyl)-6-methoxy-1,2,3,4-tetrahydroisoquinoline-1-carboxamide]",100,77.3,101,
"COc1ccc2c(c1)CCN(C(=O)c1cc(O)no1)C2C(=O)Nc1ccc(C(C)(C)C)c(Cl)c1 (stereo not drawn) [Example 10, N-(4-tert-butyl-3-chlorophenyl)-2-((3-hydroxy-1,2-oxazol-5-yl)carbonyl)-6-methoxy-1,2,3,4-tetrahydroisoquinoline-1-carboxamide]",98.9,43.8,98.8,
"COc1ccc2c(c1)CCN(C(=O)c1cc(O)no1)C2C(=O)Nc1cc(F)c2c(c1)CCC2(C)C (stereo not drawn) [Example 11, N-(7-fluoro-1,1-dimethyl-2,3-dihydro-1H-inden-5-yl)-2-((3-hydroxy-1,2-oxazol-5-yl)carbonyl)-6-methoxy-1,2,3,4-tetrahydroisoquinoline-1-carboxamide]",103,67.7,99.7,
"COc1ccc2c(c1)CCN(C(=O)c1cc(O)no1)C2C(=O)Nc1cc(F)c(C(C)(C)C)c(F)c1 (stereo not drawn) [Example 12, N-(4-tert-butyl-3,5-difluorophenyl)-2-((3-hydroxy-1,2-oxazol-5-yl)carbonyl)-6-methoxy-1,2,3,4-tetrahydroisoquinoline-1-carboxamide]",103,82.4,99.3,

# Now from value to compound, other results behind:
inhibition at 1 µM [1] [%],inhibition at 1 µM [2] [%],"inhibition at 3 µM [3, 4] [%]",Structure (SMILES),inhibition at 3 µM ([3]; Jurkat) [%]
102,83.2,101,"COc1ccc2c(c1)CCN(C(=O)Cc1nnc(C)o1)[C@H]2C(=O)Nc1ccc(C(C)(C)C)c(F)c1 [Example 28, (1R)-N-(4-tert-butyl-3-fluorophenyl)-6-methoxy-2-((5-methyl-1,3,4-oxadiazol-2-yl)acetyl)-1,2,3,4-tetrahydroisoquinoline-1-carboxamide]",
102,88,102,"COc1ccc2c(c1)CCN(C(=O)Cn1cnccc1=O)[C@H]2C(=O)Nc1ccc(C(C)(C)C)c(F)c1 [Example 29, (1R)-N-(4-tert-butyl-3-fluorophenyl)-6-methoxy-2-((6-oxopyrimidin-1(6H)-yl)acetyl)-1,2,3,4-tetrahydroisoquinoline-1-carboxamide]",
102,82,99.8,"COc1ccc2c(c1)CCN(C(=O)CCO)[C@H]2C(=O)Nc1ccc(C(C)(C)C)c(F)c1 [Example 30, (1R)-N-(4-tert-butyl-3-fluorophenyl)-2-(3-hydroxypropanoyl)-6-methoxy-1,2,3,4-tetrahydroisoquinoline-1-carboxamide]",
101,89.9,103,"COc1ccc2c(c1)CCN(C(=O)Cc1ccc(OC)nc1)[C@H]2C(=O)Nc1ccc(C(C)(C)C)c(F)c1 [Example 32, (1R)-N-(4-tert-butyl-3-fluorophenyl)-6-methoxy-2-((6-methoxypyridin-3-yl)acetyl)-1,2,3,4-tetrahydroisoquinoline-1-carboxamide]",
103,98.3,98.6,"CCOC(=O)C(C)(C)c1ccc(NC(=O)C2c3ccc(OC)cc3CCN2C(=O)c2cc(O)no2)cc1F (stereo not drawn) [Example 37, ethyl 2-(2-fluoro-4-(((2-((3-hydroxy-1,2-oxazol-5-yl)carbonyl)-6-methoxy-1,2,3,4-tetrahydroisoquinolin-1-yl)carbonyl)amino)phenyl)-2-methylpropanoate]",
100,81.9,101,"CCOc1ccc2c(c1)CCN(C(=O)Cc1cc(O)no1)C2C(=O)Nc1ccc(C(C)(C)C)c(F)c1 (stereo not drawn) [Example 54, N-(4-tert-butyl-3-fluorophenyl)-6-ethoxy-2-((3-hydroxy-1,2-oxazol-5-yl)acetyl)-1,2,3,4-tetrahydroisoquinoline-1-carboxamide]",
102,73.4,100,"CCOc1ccc2c(c1)CCN(C(=O)Cc1cc(O)no1)C2C(=O)Nc1cc(F)c2c(c1)CCC2(C)C (stereo not drawn) [Example 55, 6-ethoxy-N-(7-fluoro-1,1-dimethyl-2,3-dihydro-1H-inden-5-yl)-2-((3-hydroxy-1,2-oxazol-5-yl)acetyl)-1,2,3,4-tetrahydroisoquinoline-1-carboxamide]",
101,91,100,"COc1ccc2c(n1)CCN(C(=O)c1cc(O)no1)[C@H]2C(=O)Nc1ccc(C(C)(C)C)c(F)c1 [Example 77, (5R)-N-(4-tert-butyl-3-fluorophenyl)-6-((3-hydroxy-1,2-oxazol-5-yl)carbonyl)-2-methoxy-5,6,7,8-tetrahydro-1,6-naphthyridine-5-carboxamide]",
101,92,100,"COc1ccc2c(c1)CCN(C(=O)CC#N)[C@H]2C(=O)Nc1cc(F)c(C(C)(C)C)c(F)c1 [Example 84, (1R)-N-(4-tert-butyl-3,5-difluorophenyl)-2-(cyanoacetyl)-6-methoxy-1,2,3,4-tetrahydroisoquinoline-1-carboxamide]",
